# Biological target: T1, human M4 muscarinic acetylcholine receptor (Homo sapiens, UniProt P08173)
# T1 construct: expressed in transfected cells
# T1 sequence (P08173 1-479): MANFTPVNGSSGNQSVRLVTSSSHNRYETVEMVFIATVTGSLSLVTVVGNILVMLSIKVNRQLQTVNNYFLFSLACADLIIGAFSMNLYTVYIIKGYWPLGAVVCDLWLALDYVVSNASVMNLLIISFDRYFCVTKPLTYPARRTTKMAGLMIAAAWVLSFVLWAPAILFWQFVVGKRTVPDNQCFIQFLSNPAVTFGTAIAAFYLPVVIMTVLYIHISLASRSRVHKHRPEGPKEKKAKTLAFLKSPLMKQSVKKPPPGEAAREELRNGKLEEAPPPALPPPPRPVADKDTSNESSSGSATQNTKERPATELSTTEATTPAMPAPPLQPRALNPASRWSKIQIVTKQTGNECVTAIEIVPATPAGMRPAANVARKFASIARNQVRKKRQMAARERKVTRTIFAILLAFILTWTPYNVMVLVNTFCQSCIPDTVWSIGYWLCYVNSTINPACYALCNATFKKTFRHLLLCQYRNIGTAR
# Assay: human FLIPR-based M4 PAM assay (CHO-K1 cells with human M4 receptor and Gαqi5, calcium dye fluorescence, EC20 acetylcholine)
# Format: cell-based
# Conditions: inflection point (IP) of the dose response curve, human M4 receptor/Gαqi5, acetylcholine at 20% of maximum response, read-out: M4PAM Hu IP
# Description: (§1) In a typical experiment the M4 muscarinic acetylcholine receptor modulating activity of the compounds of the present invention was determined in accordance with the following experimental method. CHO-K1 cells stably transfected with human M4 receptor and chimeric G-protein Gαqi5 (Coward P, et al., Analytical Biochemistry, 270:242-248 (1999)) are thawed from liquid N2 storage, resuspended in growth medium, plated in black, clear bottom 384 well plates, and incubated 16-20 hours at 37° C., 5% CO2. On the day of assay, growth medium is removed, the cells are washed 2 times with wash buffer, and cells are incubated in dye loading buffer at 37° C., 5% CO2 for ˜1 hour. Following dye loading the cell plates are placed in a FLIPR Tetra instrument and while monitoring dye fluorescence (excitation […]), 10 uL of test substance at increasing concentrations is added, and fluorescence values are recorded for 4 min. Next, 10 uL of acetylcholine is added (final concentration calculated so as to achieve 20% of the maximum acetycholine response), and the fluorescence reading is continued for 3.5 min. In some cases, a third addition of acetylcholine (final concentration calculated to achieve 70% of the maximal acetylcholine response) is performed. The resulting dose response curves are fit to a 4 parameter logistic equation and the final result is determined as the inflection point (IP) of the curve
# as §1, with “CHO-K1” for “In a typical experiment the M4 muscarinic acetylcholine receptor modulating activity of the compounds of the present invention was determined in accordance with the following experimental method. CHO-K1”, “Gαqi5” for “Gαqi5 (Coward P, et al., Analytical Biochemistry, 270:242-248 (1999))”, “performed.” for “performed. The resulting dose response curves are fit to a 4 parameter logistic equation and the final result is determined as the inflection point (IP) of the curve”
smiles,measurement,value
"N#Cc1ccc(-c2cnn(CC3(C(F)(F)F)CC3)c2F)c(-c2ccc3cccnc3c2)n1 [Example 59, 5-(5-fluoro-1-{[1-(trifluoromethyl)cyclopropyl]methyl}-1H-pyrazol-4-yl)-6-quinolin-7-ylpyridine-2-carbonitrile]",EC50,57 nM
"CC(C)C(=O)Cn1cc(-c2ccc(C#N)nc2-c2ccc3cccnc3c2)cn1 [Example 60, 5-[1-(3-methyl-2-oxobutyl)-1H-pyrazol-4-yl]-6-quinolin-7-ylpyridine-2-carbonitrile]",EC50,181 nM
"CC(C)C(F)(F)Cn1cc(-c2ccc(C#N)nc2-c2ccc3cccnc3c2)cn1 [Example 61, 5-[1-(2,2-difluoro-3-methylbutyl)-1H-pyrazol-4-yl]-6-quinolin-7-ylpyridine-2-carbonitrile]",EC50,26 nM
"CC(C)CCn1cc(-c2cccnc2-c2ccc3ccc(Cl)nc3c2)cn1 [Example 62, 2-chloro-7-{3-[1-(3-methylbutyl)-1H-pyrazol-4-yl]pyridin-2-yl}quinoline]",EC50,84 nM
"CC(C)CCn1cc(-c2ccc(Cl)nc2-c2ccc3cccnc3c2)cn1 [Example 63, 7-{6-chloro-3-[1-(3-methylbutyl)-1H-pyrazol-4-yl]pyridin-2-yl}quinoline]",EC50,26 nM
"CC(C)CCn1cc(-c2c(Cl)ccnc2-c2ccc3cccnc3c2)cn1 [Example 64, 7-{4-chloro-3-[1-(3-methylbutyl)-1H-pyrazol-4-yl]pyridin-2-yl}quinoline]",EC50,295 nM
"CC(C)CCn1cc(-c2ccc(F)nc2-c2ccc3cccnc3c2)cn1 [Example 65, 7-{6-fluoro-3-[1-(3-methylbutyl)-1H-pyrazol-4-yl]pyridin-2-yl}quinoline]",EC50,95 nM
"CC(C)CCn1cc(-c2ccc(C#N)nc2-c2ccc3cccnc3c2)cn1 [Example 66, 5-[1-(3-methylbutyl)-1H-pyrazol-4-yl]-6-quinolin-7-ylpyridine-2-carbonitrile]",EC50,24 nM
"CC(C)CCn1cc(-c2ccc(C3=CCOCC3)nc2-c2ccc3cccnc3c2)cn1 [Example 67, 7-{6-(3,6-dihydro-2H-pyran-4-yl)-3-[1-(3-methylbutyl)-1H-pyrazol-4-yl]pyridin-2-yl}quinoline]",EC50,121 nM
"CC(C)CCn1cc(-c2ccc(-c3ccnn3C)nc2-c2ccc3cccnc3c2)cn1 [Example 68, 7-{3-[1-(3-methylbutyl)-1H-pyrazol-4-yl]-6-(1-methyl-1H-pyrazol-5-yl)pyridin-2-yl}quinoline]",EC50,118 nM
"CCCc1ccc(-c2cnn(CCC(C)C)c2)c(-c2ccc3cccnc3c2)n1 [Example 69, 7-{3-[1-(3-methylbutyl)-1H-pyrazol-4-yl]-6-propylpyridin-2-yl}quinoline]",EC50,185 nM
"CC(C)CCn1cc(-c2ccc(C3CC3)nc2-c2ccc3cccnc3c2)cn1 [Example 70, 7-{6-(cyclopropyl)-3-[1-(3-methylbutyl)-1H-pyrazol-4-yl]pyridin-2-yl}quinoline]",EC50,233 nM
"Cc1cnc(-c2ccc3cccnc3c2)c(-c2cnn(CCC(C)C)c2)c1 [Example 71, 7-{5-methyl-3-[1-(3-methylbutyl)-1H-pyrazol-4-yl]pyridin-2-yl}quinoline]",EC50,222 nM
"C=Cc1ccc(-c2cnn(CCC(C)C)c2)c(-c2ccc3cccnc3c2)n1 [Example 72, 7-{6-ethenyl-3-[1-(3-methylbutyl)-1H-pyrazol-4-yl]pyridin-2-yl}quinoline]",EC50,191 nM
"CCc1ccc(-c2cnn(CCC(C)C)c2)c(-c2ccc3cccnc3c2)n1 [Example 73, 7-{6-ethyl-3-[1-(3-methylbutyl)-1H-pyrazol-4-yl]pyridin-2-yl}quinoline]",EC50,140 nM
"CC(C)CCn1cc(-c2ccc(Br)nc2-c2ccc3cccnc3c2)cn1 [Example 74, 7-{6-bromo-3-[1-(3-methylbutyl)-1H-pyrazol-4-yl]pyridin-2-yl}quinoline]",EC50,39 nM
"COCCOc1ccc(-c2cnn(CCC(C)C)c2)c(-c2ccc3cccnc3c2)n1 [Example 75, 7-{6-(2-methoxyethoxy)-3-[1-(3-methylbutyl)-1H-pyrazol-4-yl]pyridin-2-yl}quinoline]",EC50,123 nM
"CSc1cnc(-c2ccc3cccnc3c2)c(-c2cnn(CCC(C)C)c2)c1 [Example 76, 7-{3-[1-(3-methylbutyl)-1H-pyrazol-4-yl]-5-(methylsulfanyl)pyridin-2-yl}quinoline]",EC50,63 nM
"COc1cc2ccc(-c3nc(C)ccc3-c3cnn(CCCC(F)(F)F)c3)cc2nn1 [Example 77, 3-methoxy-7-{6-methyl-3-[1-(4,4,4-trifluorobutyl)-1H-pyrazol-4-yl]pyridin-2-yl}cinnoline]",EC50,271 nM
"COc1cc2ccc(-c3nc(C)ccc3-c3cnn(CC4CC(F)(F)C4)c3)cc2nn1 [Example 78, 7-(3-{1-[(3,3-difluorocyclobutyl)methyl]-1H-pyrazol-4-yl}-6-methylpyridin-2-yl)-3-methoxycinnoline]",EC50,190 nM
"COc1cc2ccc(-c3nc(C)ccc3-c3cnn(CCC4CC(F)(F)C4)c3)cc2nn1 [Example 79, 7-(3-{1-[2-(3,3-difluorocyclobutyl)ethyl]-1H-pyrazol-4-yl}-6-methylpyridin-2-yl)-3-methoxycinnoline]",EC50,166 nM
"COc1cc2ccc(-c3nc(C)ccc3-c3cnn(CCCC(F)=C(F)F)c3)cc2nn1 [Example 80, 3-methoxy-7-{6-methyl-3-[1-(4,5,5-trifluoropent-4-en-1-yl)-1H-pyrazol-4-yl]pyridin-2-yl}cinnoline]",EC50,154 nM
"COc1cc2ccc(-c3nc(C)ccc3-c3cnn(CCC4CCOC4)c3)cc2nn1 (stereo not shown) [Example 81, 3-methoxy-7-(6-methyl-3-{1-[2-(tetrahydrofuran-3-yl)ethyl]-1H-pyrazol-4-yl}pyridin-2-yl)cinnoline]",EC50,228 nM
"COc1cc2ccc(-c3nc(C)ccc3-c3cnn(CC4CCOC4)c3)cc2nn1 (stereo not shown) [Example 82, 3-methoxy-7-{6-methyl-3-[1-(tetrahydrofuran-3-ylmethyl)-1H-pyrazol-4-yl]pyridin-2-yl}cinnoline]",EC50,180 nM
"COc1cc2ccc(-c3nc(C)ccc3-c3cnn(CC4CC5(CCC5)C4)c3)cc2nn1 [Example 83, 3-methoxy-7-{6-methyl-3-[1-(spiro[3.3]hept-2-ylmethyl)-1H-pyrazol-4-yl]pyridin-2-yl}cinnoline]",EC50,99 nM
"COc1cc2ccc(-c3nc(C)ccc3-c3cnn(CC(C)(C)C#N)c3)cc2nn1 [Example 84, 3-{4-[2-(3-methoxycinnolin-7-yl)-6-methylpyridin-3-yl]-1H-pyrazol-1-yl}-2,2-dimethylpropanenitrile]",EC50,198 nM
"COc1cc2ccc(-c3nc(C)ccc3-c3cnn(CCC(C)(C)C#N)c3)cc2nn1 [Example 85, 4-{4-[2-(3-methoxycinnolin-7-yl)-6-methylpyridin-3-yl]-1H-pyrazol-1-yl}-2,2-dimethylbutanenitrile]",EC50,199 nM
"COc1cc2ccc(-c3nc(C)ccc3-c3cnn(CC4(F)CCCCC4)c3)cc2nn1 [Example 86, 7-(3-{1-[(1-fluorocyclohexyl)methyl]-1H-pyrazol-4-yl}-6-methylpyridin-2-yl)-3-methoxycinnoline]",EC50,69 nM
"COc1cc2ccc(-c3nc(C)ccc3-c3cnn(CC4(C)CCOCC4)c3)cc2nn1 [Example 87, 3-methoxy-7-(6-methyl-3-{1-[(4-methyltetrahydro-2H-pyran-4-yl)methyl]-1H-pyrazol-4-yl}pyridin-2-yl)cinnoline]",EC50,63 nM
"CC(C)(Cn1cc(-c2ccc(C#N)nc2-c2ccc3cccnc3c2)cn1)C(F)(F)F [Example 88, 6-quinolin-7-yl-5-[1-(3,3,3-trifluoro-2,2-dimethylpropyl)-1H-pyrazol-4-yl]pyridine-2-carbonitrile]",EC50,44 nM
"CC(C)(C)CCn1cc(-c2ccc(C#N)nc2-c2ccc3cccnc3c2)cn1 [Example 89, 5-[1-(3,3-dimethylbutyl)-1H-pyrazol-4-yl]-6-quinolin-7-ylpyridine-2-carbonitrile]",EC50,52 nM
